Test [1] relates to S. mutans ATCC 25175. Put plainly: Minimum bactericidal concentration (MBC) assay. It counts as cell-based, Streptococcus mutans. Conditions: Tables 1, 2. As to the method:
S. mutans was cultured and maintained on Wilkins-Chalgren Anaerobe Medium (agar and broth) at pH 7.0 supplemented with 1 g/L glucose; all cultures were incubated at 37° C. for 48 hours in an atmosphere containing 5% CO2. For the formation of biofilms in biofilm disruption assays, however, S. mutans was grown in brain-heart infusion broth supplemented with 5% sucrose.
(§1) This assay, normally carried out after an MIC assay, determines the minimum concentration of a compound that is lethal to the micro-organism being tested.
(§2) These samples were then individually sub-cultured on antibiotic-free agar medium, under the incubation conditions described above. Following incubation they were examined visually for microbial growth.
(§3) The ratio of MIC to MBC should ideally be as close to 1 as possible.

In test [2] the test system is S. mutans ATCC 25175 biofilm. Description: Biofilm disruption assay on hydroxyapatite discs. The test is classed as cell-based, Streptococcus mutans. The note with it: 0.2% (w/v). As to the method:
(§4) This assay was designed to determine quantitatively the relative potency of a test compound to disrupt (effectively kill) biofilms formed by a test organism on hydroxyapatite (HA) discs. Biofilms were formed on sterile dense ceramic HA discs 7 mm diameter×1.8 mm thick (Clarkson Chromatography) by placing the discs in the appropriate liquid media (as described above) inoculated with the test organism (0.5×10^8 cfu/ml). The HA discs were then incubated at 37° C. for ˜48 hours in a 5% CO2 atmosphere (for S. mutans ATCC 25175) or ˜96 hours under anaerobic conditions (for P. gingivalis 381). Following the incubation period the supernatant was removed from the wells containing the HA discs and the discs were washed x3 with fresh media to ensure all planktonic cells were removed. The HA discs were then transferred to sterile bijoux bottles containing 1 ml of phosphate buffered saline (PBS) plus test compound(s) at the required concentration. After a set time period (usually 2 and/or 5 min), the HA disc was transferred to another sterile bijoux containing 1 ml of fresh growth media. Adherent cells were then harvested by vigorous vortexing for 2 minutes. A sample was then taken, serially diluted 10-fold in fresh growth media and inoculated onto agar plates in triplicate. Untreated HA discs, and HA discs added to PBS containing only the solvents used to dissolve the test compound(s), acted as controls. The plates were then incubated as described above and subsequently examined visually for growth. Colonies were counted at an appropriate serial dilution (5-50 individual colonies visible) with the aid of a colony counter. These measurements were then converted to numbers of colony forming units (cfu), using the formula: cfu/ml=number of colonies×serial dilution factor×100 (as only a 10 μl sample was taken). These cfu values were then converted into log10 values and plotted graphically against time of sample removal. At each time point, samples were assessed in triplicate; the final cfu/ml value was an average (mean) of the three readings. Biofilm disruption assays, as described above, were carried out using TBHQ as the test compound and chlorhexidine as a positive control. The negative control was 5% ethanol. For these experiments, the TBHQ and chlorhexidine were tested at concentrations of 0.2% w/v. The TBHQ was dissolved in ethanol and the chlorhexidine in distilled water. All the experiments were conducted in triplicate.

Test [3] has as its system P. gingivalis 381 biofilm. Put plainly: Biofilm disruption assay on hydroxyapatite discs. It counts as cell-based, Porphyromonas gingivalis. The note with it: 0.2% (w/v). As to the method:
as §4

Test [4] relates to Klebsiella pneumoniae ATCC 700603. Put plainly: MBC assay. The test is classed as cell-based. The method, then:
as §1, §2

The test system of test [5] is Acinetobacter baumanni ATCC 19606. Description: MBC assay. It counts as cell-based. As to the method: as §1, §2
The subject of test [6] is Escherichia coli ATCC 25922. Put plainly: MBC assay. The test is classed as cell-based. As to the method:
as §1, §2

Test [7] has as its system Pseudomonas aeruginosa ATCC 27853. Put plainly: MBC assay. The test is classed as cell-based. The method, then: as §1, §2
For test [8], the system named is P. gingivalis NCTC 11834. Put plainly: Short-contact kill assay (SCKA). It counts as cell-based, Porphyromonas gingivalis. Conditions: 0.2% (w/v). The method, then:
(§5) This quantitative assay was designed to determine the relative potency of a test compound or combination of test compounds to kill a test micro-organism over a short-contact time period (up to 5 minutes).
(§6) Samples from a culture of micro-organisms (ca. 1×10^8 cfu/ml) prepared in phosphate buffered saline (PBS) containing the relevant test compound(s) were taken at timed intervals (between 0 and 5 minutes), 10-fold serially diluted in PBS and then inoculated onto agar plates in triplicate. A culture containing only the solvent(s) used to dissolve the test compound(s) acted as a control for the assay (maximum solvent load 2.5% v/v).
(§7) The plates were then incubated as described above and subsequently examined visually for growth. Colonies were counted at an appropriate serial dilution (5-50 individual colonies visible) with the aid of a colony counter. These measurements were then converted to numbers of colony forming units (cfu), using the formula: cfu/ml=number of colonies×serial dilution factor×100 (as only a […] was taken).
(§8) These cfu values were then converted into […] values and plotted graphically against time of sample removal.
(§9) At each time point, samples were assessed in triplicate; the final cfu/ml value was an average (mean) of the three readings.
(§10) SCKAs, as described above, were carried out using TBHQ as the test compound. Chlorhexidine was used as a positive control and 2.5% ethanol as a negative control.
(§11) For the SCKA experiments, the TBHQ and chlorhexidine were both tested at concentrations of 0.2% w/v. The TBHQ was dissolved in ethanol and the chlorhexidine in distilled water. All the experiments were conducted in triplicate.

For test [9], the system named is S. mutans ATCC 25175. Put plainly: Minimum inhibitory concentration (MIC) assay. The test is classed as cell-based, Streptococcus mutans. Conditions: Tables 1, 2. As to the method:
(§12) S. mutans was cultured and maintained on Wilkins-Chalgren Anaerobe Medium (agar and broth) at pH 7.0 supplemented with 1 g/L glucose; all cultures were incubated at 37° C. for 48 hours in an atmosphere containing 5% CO2. For the formation of biofilms in biofilm disruption assays, however, S. mutans was grown in brain-heart infusion broth supplemented with 5% sucrose. This is a standard international method for quantitatively assessing the antimicrobial activity of a compound in a liquid medium. The method used a sterile 96-well microtitre plate, capable of holding about 200 μl of liquid per well. […] The culture medium was as described above. The wells were inoculated with a liquid suspension of freshly grown micro-organism and incubated under the conditions described above. After incubation, the microtitre plate was examined visually (with the aid of a light box) for cloudiness in each well, which would indicate microbial growth. The MIC value was recorded as the lowest concentration of test compound required to inhibit microbial growth, ie the lowest concentration for which the liquid in the well remained clear. The assays were conducted in duplicate (minimum) and included both negative (culture medium with no micro-organisms) and positive (culture medium plus diluting solvent plus micro-organism) controls.

The test system of test [10] is S. mutans ATCC 25175. Description: Short-contact kill assay (SCKA). It counts as cell-based, Streptococcus mutans. Conditions: 0.2% (w/v). The method, then:
as §5, §6, §7, §8, §9, §10, §11

Test [11] concerns P. gingivalis NCTC 11834. Description: Minimum inhibitory concentration (MIC) assay. The note with it: Tables 1, 2. It counts as cell-based, Porphyromonas gingivalis. As to the method:
as §12, with “P. gingivalis strains were cultured and” for “S. mutans was cultured and”, “at pH 7.0; all cultures” for “at pH 7.0 supplemented with 1 g/L glucose; all cultures”, “were incubated anaerobically at 37°” for “were incubated at 37°”, “C. for 5-7 days. This is” for “C. for 48 hours in an atmosphere containing 5% CO2. For the formation of biofilms in biofilm disruption assays, however, S. mutans was grown in brain-heart infusion broth supplemented with 5% sucrose. This is”

Test [12] relates to P. gingivalis NCTC 11834. Description: Minimum bactericidal concentration (MBC) assay. It counts as cell-based, Porphyromonas gingivalis. Conditions: Tables 1, 2. The method, then: P. gingivalis strains were cultured and maintained on Wilkins-Chalgren Anaerobe Medium (agar and broth) at pH 7.0; all cultures were incubated anaerobically at 37° C. for 5-7 days.
as §1, §2, §3

The mark [13] stands for this setting: 1 min, 3.00 = limit of detection.

Converted amounts (≈) assume the structure as drawn.

By MBC is commonly meant the smallest concentration meeting the test's criterion for killing. Low values mean more potent killing, high ones less potent killing. As a reminder, the MIC is the least concentration at which growth counts as inhibited. A low value points to greater potency. As to `CC(C)(C)c1cc(O)ccc1O` [TBHQ, t-butyl-p-hydroquinone], the MBC in [1] is 31.25 µg/mL (≈ 188 µM); in [4], 1000 µg/mL (≈ 6020 µM); in test [5] it was 500 µg/mL (≈ 3010 µM); in [6], 500 µg/mL (≈ 3010 µM); in test [7], greater than 1000 µg/mL; in [12] it was 0.98 µg/mL (≈ 5.9 µM). The MIC/MBC ratio is 1 in [1] and 0.5 in test [12]. Further, the Viable cell counts in test [2] (0 min) is reported as 6.36 Log10 cfu/ml; in test [2] (2 min) it was 6.52 Log10 cfu/ml; in test [2] (5 min) it was 6.24 Log10 cfu/ml; in test [3] (0 min) it was 7.74 Log10 cfu/ml; in test [3] (2 min), 6.52 Log10 cfu/ml; in [3] (5 min, 2.00 = limit of detection), “*2.00 Log10 cfu/ml”. The Viable cell counts in [8] (0 min) is 9.32 Log10 cfu/ml; in test [8] (0.5 min) it was 6.50 Log10 cfu/ml; in test [8] (setting [13]), “*3.00 Log10 cfu/ml”; in test [10] (0 min) it was 7.64 Log10 cfu/ml; in [10] (0.5 min, 3.00 = limit of detection), 7.56 Log10 cfu/ml; in test [10] (setting [13]) it was 7.36 Log10 cfu/ml. Besides, the results for the MIC in [9] and in test [11] were 31.25 µg/mL (≈ 188 µM) and 0.49 µg/mL (≈ 2.95 µM), respectively.

The values above are taken from patent US20100310478A1, “SUBSTITUTED BENZOQUINONES AND HYDROQUINONES IN THE TREATMENT OF PERIODONTAL DISEASES” (priority 2007, published 2010).
